Measurements published in US12459914B2, “Compounds and compositions for the treatment of tumors” (FONDAZIONE ISTITUTO ITALIANO DI TECNOLOGIA, priority 2019, dated 2025).

How the values were obtained:
BxPC-3 cells = test: Cell viability assay (CellTiter Glo); assay type: cell-based; conditions: Homo sapiens, 72 h
Protocol: BxPC-3 cells were grown in RPMI 1640 containing 10% FBS, 100 U/ml penicillin/streptomycin, 2 mM glutamine. All media and supplements were from Sigma-Aldrich. Cultures were routinely tested for Mycoplasma contamination. Treatments (Olaparib and BRCA2-Rad51 disruptors) were administered in culture medium supplemented with 0.6% DMSO. The same amount of DMSO was added to the control, untreated cultures.
Cell viability was assessed by CellTiter Glo, Luminescent Cell Viability Assay. Briefly, BxPC-3 cells (1×10^4/well) were plated in white 96-well plates with clear bottom and treated for 72 h with olaparib (10 μM) or with the BRCA2-Rad51 disruptors, given alone or in combination. After treatments, the plate was allowed to equilibrate at room temperature for 30 min and the CellTiter-Glo reactive was directly added to each well. The plate was kept on a shaker for 2 min to induce cell lysis and its luminescence was measured by using a Fluoroskan Ascent FL reader (Labsystems) using manufacturer's instructions.

BRC4/RAD51 interaction = target: T1, BRC4/RAD51 interaction (Homo sapiens, UniProt Q06609); test: Competitive ELISA assay, disruption of BRC4/RAD51 interaction; assay type: binding; conditions: human Rad51, biotinylated BRC4 peptide
T1 construct: purchased Creative Biomart (Rad51); Life Technologies (BRC4 peptide)
T1 sequence (Q06609 1-339): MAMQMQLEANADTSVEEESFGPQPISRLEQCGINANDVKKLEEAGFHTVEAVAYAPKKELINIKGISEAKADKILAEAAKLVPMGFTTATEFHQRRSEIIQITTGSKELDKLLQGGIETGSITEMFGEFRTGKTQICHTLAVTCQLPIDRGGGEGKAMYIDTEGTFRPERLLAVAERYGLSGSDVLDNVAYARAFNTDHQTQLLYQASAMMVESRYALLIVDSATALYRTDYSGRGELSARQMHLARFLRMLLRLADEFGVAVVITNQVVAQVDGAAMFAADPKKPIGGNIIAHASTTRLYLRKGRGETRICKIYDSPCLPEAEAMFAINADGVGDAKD
Protocol: A competitive ELISA screening assay using biotinylated BRC4 peptide to disrupt the BRC4/RAD51 interaction was performed by modifying the method described by Rajendra et al. (Nucleic Acids Res. 38 (2010) 82-96). BRC4-biotinylated peptide (N-term Biotin[…] from Life Technologies) was used to coat 384-well plates (Nunc). After washing with PBS containing 0.05% Tween-20 (PBST), and blocking with the solution BSA 1%/PBST, overnight hybridization with human Rad51 protein (NP_002866 Creative Biomart, NY) was performed. Test compounds were added in dose-response from […] in triplicate with constant DMSO 1%. Antibody raised against Rad51 (Millipore) and HRP-secondary antibody staining to develop the 3,30,5,50-tetramethyllbenzidine signal (Sigma) quenched with 1M HCl was used as the assay readout. Colorimetric measure was read on Victor5 (PerkinElmer) plate Reader. BRC4 and Rad51 were included in the assay as positive control. Results were analyzed using GraphPad Software.

EC50 (BxPC-3 cells) [µM]	EC50 (BRC4/RAD51 interaction) [µM]	SMILES
20		CC(=O)N1N=C(c2c(-c3ccccc3)c3cc(Cl)ccc3[nH]c2=O)CC1c1ccc(Cl)cc1 (centres unmarked) [d.6, 3-[2-acetyl-3-(4-chlorophenyl)-3,4-dihydropyrazol-5-yl]-6-chloro-4-phenyl-1H-quinolin-2-one]
43		O=C(O)CCC(=O)N1N=C(c2c(-c3ccccc3)c3cc(Cl)ccc3[nH]c2=O)CC1c1ccc(-c2ccc(Br)cc2)cc1 (centres unmarked) [d.39, 4-[3-[4-(4-bromophenyl)phenyl]-5-(6-chloro-2-oxo-4-phenyl-1H-quinolin-3-yl)-3,4-dihydropyrazol-2-yl]-4-oxo-butanoic acid]
20		CCC(=O)N1N=C(c2c(-c3ccccc3)c3cc(Cl)ccc3[nH]c2=O)CC1c1ccc(Cl)cc1 (centres unmarked) [d.7, 6-chloro-3-[3-(4-chlorophenyl)-2-propanoyl-3,4-dihydropyrazol-5-yl]-4-phenyl-1H-quinolin-2-one]
> 100	> 100	CCCn1ncc2cc(C3CC(c4c(-c5ccccc5)c5cc(Cl)ccc5[nH]c4=O)=NN3C(=O)CCC(=O)O)ccc21 (centres unmarked) [d.33, 4-[5-(6-chloro-2-oxo-4-phenyl-1H-quinolin-3-yl)-3-(1-propylindazol-5-yl)-3,4-dihydropyrazol-2-yl]-4-oxo-butanoic acid]
15.2		CC(=O)N1N=C(c2c(-c3ccccc3)c3cc(Cl)ccc3[nH]c2=O)CC1c1ccc(C)cc1 (centres unmarked) [d.49, 3-[2-acetyl-3-(p-tolyl)-3,4-dihydropyrazol-5-yl]-6-chloro-4-phenyl-1H-quinolin-2-one]
18	38	CC(=O)N1N=C(c2c(-c3ccccc3)c3cc(Cl)ccc3[nH]c2=O)CC1c1ccc(Br)cc1 (centres unmarked) [d.9, 3-[2-acetyl-3-(4-bromophenyl)-3,4-dihydropyrazol-5-yl]-6-chloro-4-phenyl-1H-quinolin-2-one]
	105	COc1ccc(-c2ccc(C3CC(c4c(Cc5ccccc5)c5cc(Cl)ccc5[nH]c4=O)=NN3C(C)=O)cc2)cc1 (centres unmarked) [d.89, 3-[2-acetyl-3-[4-(4-methoxyphenyl)phenyl]-3,4-dihydropyrazol-5-yl]-4-benzyl-6-chloro-1H-quinolin-2-one]
	34	CCC(=O)N1N=C(c2c(-c3ccccc3)c3cc(Cl)ccc3[nH]c2=O)CC1c1ccc(F)cc1 (centres unmarked) [d.3, 6-chloro-3-[3-(4-fluorophenyl)-2-propanoyl-3,4-dihydropyrazol-5-yl]-4-phenyl-1H-quinolin-2-one]
	65	CCC(=O)N1N=C(c2c(Cc3ccccc3)c3cc(Cl)ccc3[nH]c2=O)CC1c1ccc(F)cc1 (centres unmarked) [d.54, 4-benzyl-6-chloro-3-[3-(4-fluorophenyl)-2-propanoyl-3,4-dihydropyrazol-5-yl]-1H-quinolin-2-one]
	15	CCn1ncc2cc(-c3ccc(C4CC(c5c(-c6ccccc6)c6cc(Cl)ccc6[nH]c5=O)=NN4C(=O)CCC(=O)O)cc3)ccc21 (centres unmarked) [d.45, 4-[5-(6-chloro-2-oxo-4-phenyl-1H-quinolin-3-yl)-3-[4-(1-ethylindazol-5-yl)phenyl]-3,4-dihydropyrazol-2-yl]-4-oxo-butanoic acid]
13.7		COc1ccc(C2CC(c3c(Cc4ccccc4)c4cc(Cl)ccc4[nH]c3=O)=NN2C(C)=O)cc1 (centres unmarked) [d.52, 3-[2-acetyl-3-(4-methoxyphenyl)-3,4-dihydropyrazol-5-yl]-4-benzyl-6-chloro-1H-quinolin-2-one]
	19	CCC(=O)N1N=C(c2c(-c3ccccc3)c3cc(Cl)ccc3[nH]c2=O)CC1c1ccc(Br)cc1 (centres unmarked) [d.10, 3-[3-(4-bromophenyl)-2-propanoyl-3,4-dihydropyrazol-5-yl]-6-chloro-4-phenyl-1H-quinolin-2-one]
29.6		COc1ccc(C2CC(c3c(CCc4ccccc4)c4cc(Cl)ccc4[nH]c3=O)=NN2C(=O)CCC(=O)O)cc1 (centres unmarked) [d.105, 4-[5-[6-chloro-2-oxo-4-(2-phenylethyl)-1H-quinolin-3-yl]-3-(4-methoxyphenyl)-3,4-dihydropyrazol-2-yl]-4-oxo-butanoic acid]
	10	Cn1ccc2cc(C3CC(c4c(Cc5ccccc5)c5cc(Cl)ccc5[nH]c4=O)=NN3C(=O)CCC(=O)O)ccc21 (centres unmarked) [d.69, 4-[5-(4-benzyl-6-chloro-2-oxo-1H-quinolin-3-yl)-3-(1-methylindol-5-yl)-3,4-dihydropyrazol-2-yl]-4-oxo-butanoic acid]
	12	O=C(O)CCC(=O)N1N=C(c2c(Cc3ccccc3)c3cc(Cl)ccc3[nH]c2=O)CC1c1ccc(-c2ccc(F)cc2)cc1 (centres unmarked) [d.83, 4-[5-(4-benzyl-6-chloro-2-oxo-1H-quinolin-3-yl)-3-[4-(4-fluorophenyl)phenyl]-3,4-dihydropyrazol-2-yl]-4-oxo-butanoic acid]
	46	CCCn1cc(-c2ccc(C3CC(c4c(-c5ccccc5)c5cc(Cl)ccc5[nH]c4=O)=NN3C(C)=O)cc2)cn1 (centres unmarked) [d.44, 3-[2-acetyl-3-[4-(1-propylpyrazol-4-yl)phenyl]-3,4-dihydropyrazol-5-yl]-6-chloro-4-phenyl-1H-quinolin-2-one]
	190	O=C(O)CCC(=O)N1N=C(c2c(-c3ccccc3)c3cc(Cl)ccc3[nH]c2=O)CC1c1ccccn1 (centres unmarked) [d.99, 4-(3-(6-chloro-2-oxo-4-phenyl-1,2-dihydroquinolin-3-yl)-5-(pyridin-2-yl)-4,5-dihydro-1H-pyrazol-1-yl)-4-oxobutanoic acid]
> 50		O=C(O)CCC(=O)N1N=C(c2c(-c3ccccc3)c3cc(Cl)ccc3[nH]c2=O)CC1c1ccc(Cl)cc1 (centres unmarked) [d.5, 4-[5-(6-chloro-2-oxo-4-phenyl-1H-quinolin-3-yl)-3-(4-chlorophenyl)-3,4-dihydropyrazol-2-yl]-4-oxo-butanoic acid]
27		CCn1ncc2cc(C3CC(c4c(-c5ccccc5)c5cc(Cl)ccc5[nH]c4=O)=NN3C(C)=O)ccc21 (centres unmarked) [d.32, 3-[2-acetyl-3-(1-ethylindazol-5-yl)-3,4-dihydropyrazol-5-yl]-6-chloro-4-phenyl-1H-quinolin-2-one]
	70	COc1ccc(-c2ccc(C3CC(c4c(-c5ccccc5)c5cc(Cl)ccc5[nH]c4=O)=NN3C(C)=O)cc2)cc1 (centres unmarked) [d.42, 3-[2-acetyl-3-[4-(4-methoxyphenyl)phenyl]-3,4-dihydropyrazol-5-yl]-6-chloro-4-phenyl-1H-quinolin-2-one]
15.2		O=C(O)CCC(=O)N1N=C(c2c(Cc3ccccc3)c3cc(Cl)ccc3[nH]c2=O)CC1c1ccc(F)cc1 (centres unmarked) [d.50, 4-[5-(4-benzyl-6-chloro-2-oxo-1H-quinolin-3-yl)-3-(4-fluorophenyl)-3,4-dihydropyrazol-2-yl]-4-oxo-butanoic acid]
	> 100	COc1ccc(C2CC(c3c(Cc4ccccc4)c4cc(Cl)ccc4[nH]c3=O)=NN2C(=O)CCC(=O)O)cc1 (centres unmarked) [d.61, 4-[5-(4-benzyl-6-chloro-2-oxo-1H-quinolin-3-yl)-3-(4-methoxyphenyl)-3,4-dihydropyrazol-2-yl]-4-oxo-butanoic acid]
81.8		Cn1ncc2cc(C3CC(c4c(Cc5ccccc5)c5cc(Cl)ccc5[nH]c4=O)=NN3C(=O)CCC(=O)O)ccc21 (centres unmarked) [d.73, 4-[5-(4-benzyl-6-chloro-2-oxo-1H-quinolin-3-yl)-3-(1-methylindazol-5-yl)-3,4-dihydropyrazol-2-yl]-4-oxo-butanoic acid]
37		CC(=O)N1N=C(c2c(-c3ccccc3)c3cc(Cl)ccc3[nH]c2=O)CC1c1ccc(F)cc1 (centres unmarked) [d.2, 3-[2-acetyl-3-(4-fluorophenyl)-3,4-dihydropyrazol-5-yl]-6-chloro-4-phenyl-1H-quinolin-2-one]
	15	O=C(O)CCC(=O)N1N=C(c2c(Cc3ccccc3)c3cc(Cl)ccc3[nH]c2=O)CC1c1cccnc1 (centres unmarked) [d.100, 4-[5-(4-benzyl-6-chloro-2-oxo-1H-quinolin-3-yl)-3-(3-pyridyl)-3,4-dihydropyrazol-2-yl]-4-oxo-butanoic acid]
40.6		COc1ccc(-c2ccc(C3CC(c4c(-c5ccccc5)c5cc(Cl)ccc5[nH]c4=O)=NN3C(=O)CCC(=O)O)cc2)cc1 (centres unmarked) [d.41, 4-[5-(6-chloro-2-oxo-4-phenyl-1H-quinolin-3-yl)-3-[4-(4-methoxyphenyl)phenyl]-3,4-dihydropyrazol-2-yl]-4-oxo-butanoic acid]
23.6		O=C(O)CCC(=O)N1N=C(c2c(Cc3ccccc3)c3cc(Cl)ccc3[nH]c2=O)CC1c1ccc(Br)cc1 (centres unmarked) [d.58, 4-[5-(4-benzyl-6-chloro-2-oxo-1H-quinolin-3-yl)-3-(4-bromophenyl)-3,4-dihydropyrazol-2-yl]-4-oxo-butanoic acid]
